Assay results: ChEMBL document CHEMBL3608235, “Pyrroloaryls and pyrroloheteroaryls: Inhibitors of the HIV fusion/attachment, reverse transcriptase and integrase” (Bioorg Med Chem, 2015)
Converted amounts (≈) assume the structure as drawn. One block for each compound: values may come before it.

Key:
[1] = system: Human immunodeficiency virus 1; assay: Antiviral activity against HIV1 infected in human MT4 cells; format: functional, organism-based; settings: Human immunodeficiency virus 1, MT4
[2] = system: Human immunodeficiency virus; assay: Antiviral activity against HIV by XTT assay; format: functional, organism-based; settings: Human immunodeficiency virus 1
[3] = system: Human immunodeficiency virus 2; assay: Antiviral activity against HIV2 by XTT assay; format: functional, organism-based
[4] = system: Human immunodeficiency virus 1; assay: Antiviral activity against HIV1 by XTT assay; format: functional, organism-based
[5] = system: Human immunodeficiency virus; assay: Antiviral activity against HIV by syncytial plaque assay; format: functional, organism-based; settings: Human immunodeficiency virus 1
[6] = system: Human immunodeficiency virus 2; assay: Antiviral activity against HIV2 ROD; format: functional, organism-based; settings: Human immunodeficiency virus 2, ISOLATE ROD
[7] = system: Human immunodeficiency virus 1; assay: Antiviral activity against HIV1 3B; format: functional, organism-based; settings: Human immunodeficiency virus 1, 3B
[8] = system: Human immunodeficiency virus 1; assay: Antiviral activity against HIV1 3B infected in human MT2 cells assessed as reduction in virus-induced cell death; format: functional; settings: Human immunodeficiency virus 1, 3B
[9] = system: Human immunodeficiency virus 1; assay: Antiviral activity against HIV1 SF2; format: functional, organism-based; settings: Human immunodeficiency virus 1, SF2
[10] = system: Human immunodeficiency virus 2; assay: Antiviral activity against HIV2 LAI; format: functional, organism-based; settings: Human immunodeficiency virus 2, LAI
[11] = system: Human immunodeficiency virus 1; assay: Antiviral activity against HIV1 NL4-3; format: functional, organism-based; settings: Human immunodeficiency virus 1, NL4-3
[12] = system: Human immunodeficiency virus 1; assay: Antiviral activity against HIV1 BAL; format: functional, organism-based; settings: Human immunodeficiency virus 1, BAL
[13] = system: Human immunodeficiency virus 1; assay: Antiviral activity against HIV1 TLAV; format: functional, organism-based; settings: Human immunodeficiency virus 1, TLAV
[14] = system: Human immunodeficiency virus 1; assay: Antiviral activity against HIV1 JRFL; format: functional, organism-based; settings: Human immunodeficiency virus 1, JRFL
[15] = system: Human immunodeficiency virus 1; assay: Antiviral activity against HIV1 SF162; format: functional, organism-based; settings: Human immunodeficiency virus 1, SF162
[16] = system: Human immunodeficiency virus 1; assay: Antiviral activity against HIV1; format: functional, organism-based
[17] = Cytotoxicity against human C8166 cells; format: cell-based; settings: human, C8166 cells
[18] = system: Human immunodeficiency virus 1; assay: Antiviral activity against HIV1 infected in human C8166 cells assessed as inhibition of virus replication; format: functional, organism-based; settings: Human immunodeficiency virus 1, C8166
[19] = system: Human immunodeficiency virus; assay: Antiviral activity against HIV infected in human MT4 cells assessed as reduction in virus-induced cytopathogenicity; format: functional, organism-based; settings: Human immunodeficiency virus 1, MT4
[20] = system: Human immunodeficiency virus; assay: Antiviral activity against HIV expressing raltegravir-resistant integrase mutants; format: functional, organism-based; settings: Human immunodeficiency virus 1
[21] = system: Human immunodeficiency virus 1; assay: Antiviral activity against HIV1 93TH051 assessed as inhibition of virus mediated cell fusion between CEMx174 5.25M7 cells and PBMC/HIV1 93TH051 cells; format: functional, organism-based; settings: Human immunodeficiency virus 1, 93TH051, CEMx174 5.25M7
[22] = system: Human immunodeficiency virus 1; assay: Antiviral activity against HIV1 3B assessed as inhibition of virus mediated cell fusion between MT2 cells and H9/HIV1 3B cells; format: functional, organism-based; settings: Human immunodeficiency virus 1, 3B
[23] = system: Human immunodeficiency virus 1; assay: Antiviral activity against HIV1 SF162 assessed as inhibition of virus mediated cell fusion between CEMx174 5.25M7 cells and PBMC/HIV1 SF162 cells; format: functional, organism-based; settings: Human immunodeficiency virus 1, SF162, CEMx174 5.25M7
[24] = Toxicity against human MT2 cells; format: cell-based
[25] = Toxicity against human U373-MAGI-CXCR4-CEM cells; format: cell-based
[26] = system: Human immunodeficiency virus 1; assay: Antiviral activity against HIV1 RF; format: functional, organism-based; settings: Human immunodeficiency virus 1, RF
[27] = Toxicity against human CEMx174 5.25M7 cells; format: cell-based
[28] = Toxicity against human U87-T4-CXCR4 cells; format: cell-based, U-87MG ATCC
[29] = system: Human immunodeficiency virus 1; assay: Antiviral activity against HIV1 92UG029 assessed as inhibition of virus mediated cell fusion between CEMx174 5.25M7 cells and […] cells; format: functional, organism-based; settings: Human immunodeficiency virus 1, 92UG029, CEMx174 5.25M7
[30] = system: Human immunodeficiency virus 1; assay: Antiviral activity against HIV1 93BR020 assessed as inhibition of virus mediated cell fusion between CEMx174 5.25M7 cells and PBMC/HIV1 93BR020 cells; format: functional, organism-based; settings: Human immunodeficiency virus 1, 93BR020, CEMx174 5.25M7
[31] = system: Human immunodeficiency virus 1; assay: Antiviral activity against HIV1 BCF02 assessed as inhibition of virus mediated cell fusion between CEMx174 5.25M7 cells and […] cells; format: functional, organism-based; settings: Human immunodeficiency virus 1, BCF02, CEMx174 5.25M7
[32] = system: Human immunodeficiency virus 1; assay: Antiviral activity against HIV1 by multi-cycle antiviral assay; format: functional, organism-based
[33] = system: Human immunodeficiency virus 1; assay: Antiviral activity against HIV1 by single-cycle antiviral assay; format: functional, organism-based
[34] = Inhibition of HIV1 LTR-mediated transcription assessed as drug level causing 50% inhibition of protein/RNA complex formation incubated for 15 mins; set-up: species or system Human immunodeficiency virus
[35] = system: Human immunodeficiency virus 1; assay: Antiviral activity against HIV1 3B infected in human primary lymphocytes assessed as reduction in p24 production incubated for 4 days by ELISA method; format: functional, organism-based; settings: Human immunodeficiency virus 1, 3B, 96 h
[36] = system: PBL; assay: Cytotoxicity against human PBL cells incubated for 4 days by MTT assay; format: cell-based; settings: 96 h
[37] = Cytotoxicity against human MT2 cells; format: cell-based; settings: read-out: TC50 (the source's name)
[38] = system: KB; assay: Cytotoxicity against human KB cells; format: cell-based

Structure (SMILES): CCCCCCCCCCCC(=O)NC1=NN(C)c2ncnc3c2c1cn3[C@@H]1O[C@H](CO)[C@@H](O)[C@H]1O
IC50 [2]: > 100 µM

Structure (SMILES): CN1N=C(N)c2cn([C@@H]3O[C@H](COP(=O)(O)O)[C@@H](O)[C@H]3O)c3ncnc1c23 [TRICIRIBINE PHOSPHATE]
IC50 [3]: 0.02 µM
IC50 [4]: 0.02 µM
IC50 [5]: 0.01 µM

Structure (SMILES): CN1C(=O)[C@H](Cc2ccc(O)cc2)n2cccc2-c2ccccc21
IC90 [8]: > 0.29 µg/mL

Structure (SMILES): O=C(C(=O)N1CCN(C(=O)c2ccccc2)CC1)c1c[nH]c2cccc(F)c12
EC50 [9]: 0.85 µM
EC50 [10]: 0.85 µM
EC50 [11]: 0.85 µM
EC50 [12]: 0.85 µM
EC50 [13]: 0.85 µM
EC50 [14]: 0.85 µM
EC50 [15]: 0.85 µM

Structure (SMILES): C[C@@H]1CN(C(=O)c2ccccc2)CCN1C(=O)C(=O)c1c[nH]c2cccnc12
EC50 [16]: 0.0016 µM

Structure (SMILES): CC(=O)OCC1=C2C(=O)N(Cc3ccc(F)c(Cl)c3)C(=O)C2=C(O)C(=O)C1C(C)C (centres undefined)
IC50 [20]: 15.6 µM

Structure (SMILES): CCCC(=O)NC1=NN(C)c2ncnc3c2c1cn3[C@@H]1O[C@H](CO)[C@@H](O)[C@H]1O
IC50 [2]: 0.5 µM

Structure (SMILES): CC(=O)OCC1=C2C(=O)N(Cc3ccc(F)c(Cl)c3)C(=O)C2=C(O)C(=O)C1
IC50 [20]: 12.3 µM

Structure (SMILES): COc1cc2c(cc1OCCC(=O)Nc1cc(C(=O)Nc3cc(C(=O)NCCC(=N)N)n(C)c3)n(C)c1)N=C[C@@H]1CCCN1C2=O
AC50 [34]: 20 µM

Structure (SMILES): O=C(O)c1cc(-n2cccc2)ccc1Cl
EC50 [21]: 57.3 µM
EC50 [22]: 29.9 µM
EC50 [9]: 4.75 µM
EC50 [23]: 93.1 µM
CC50 [24]: > 4000 µM
CC50 [25]: > 4000 µM
EC50 [26]: 3.58 µM
CC50 [27]: > 4000 µM
CC50 [28]: > 4000 µM
EC50 [29]: 29 µM
EC50 [7]: 2.21 µM
EC50 [30]: 10.1 µM
EC50 [31]: 46.4 µM

Structure (SMILES): CCCCCCCC(=O)NC1=NN(C)c2ncnc3c2c1cn3[C@@H]1O[C@H](CO)[C@@H](O)[C@H]1O
IC50 [2]: > 100 µM

Structure (SMILES): O=C1c2ccccc2C(=O)N1CCCCCN1C(=O)[C@H](Cc2ccc(O)cc2)n2cccc2-c2ccccc21
IC90 [8]: 2.6 µg/mL (≈ 5 µM)
CC50 [37]: > 50 µg/mL

Structure (SMILES): O=C(C[C@H]1C(=O)Nc2ccccc2-c2cccn21)OCc1ccccc1
IC90 [8]: 0.29 µg/mL (≈ 0.837 µM)
CC50 [37]: 10 µg/mL (≈ 28.9 µM)

Structure (SMILES): O=C1CC(CO)=C2C(=O)N(Cc3ccc(F)c(Cl)c3)C(=O)C2=C1O
IC50 [20]: 6.5 µM

Structure (SMILES): CN1N=C(N)c2cn([C@@H]3O[C@H](CO)[C@@H](O)[C@H]3O)c3nc(-c4ccccc4)nc1c23
IC50 [2]: 3 µM
EC50 [38]: > 100 µM

Structure (SMILES): COc1cc2c(cc1OCCC(=O)Nc1cc(C(=O)Nc3cc(C(=O)Nc4cc(C(=O)Nc5cc(C(=O)NCCC(=N)N)n(C)c5)n(C)c4)n(C)c3)n(C)c1)N=C[C@@H]1CCCN1C2=O
AC50 [34]: 10 µM

Continued, in another order:

EC50 [1]: 120 µM
Structure (SMILES): CCOC(=O)c1cc2c3cc(OC)ccc3c3ccc(N)cc3n2c1C

EC50 [6]: > 150 µM
EC50 [7]: 5.1 µM
Structure (SMILES): N#Cc1ccccc1CN1C(=O)N(Cc2ccccc2)S(=O)(=O)n2cccc21

EC50 [18]: 5.7 µM
Structure (SMILES): O=C(NCc1ccc(F)cc1)c1ncc(O)c2c1C(=O)N(CCc1ccc(F)cc1)C2=O
CC50 [17]: 30.8 µM

EC50 [19]: > 31 µg/mL
Structure (SMILES): COc1ccc(Nc2nc3ccccc3n3cccc23)cc1OC

EC50 [19]: > 39 µg/mL
Structure (SMILES): CCOC(=O)CCC(NC(=O)c1ccc(Nc2nc3cc(C(F)(F)F)ccc3n3cccc23)cc1)C(=O)OCC (centres undefined)

EC50 [21]: 7.46 µM
EC50 [22]: 6.74 µM
EC50 [9]: 1.86 µM
EC50 [23]: 20.6 µM
EC50 [26]: 1.69 µM
EC50 [29]: 10.6 µM
EC50 [7]: 1.04 µM
EC50 [30]: 7.04 µM
EC50 [31]: 3.94 µM
Structure (SMILES): Cc1ccc(C)n1-c1ccc(C(=O)O)c(O)c1
CC50 [24]: 2760 µM
CC50 [25]: 1860 µM
CC50 [27]: 2490 µM
CC50 [28]: > 4000 µM

EC50 [6]: > 150 µM
EC50 [7]: 7.2 µM
Structure (SMILES): O=C1N(Cc2ccccc2Cl)c2cccn2S(=O)(=O)N1Cc1cccc(F)c1

EC50 [6]: > 150 µM
EC50 [7]: 5.6 µM
Structure (SMILES): N#Cc1ccccc1CN1C(=O)N(Cc2cccc(F)c2)S(=O)(=O)n2cccc21

EC50 [32]: 7.5 µM
EC50 [33]: 8.2 µM
Structure (SMILES): O=C1NC(c2cccnc2)c2c(-c3ccccc3)n[nH]c21 (centres undefined)

EC50 [35]: 14 µM
Structure (SMILES): CN1C(=O)c2ccn(C)c2S(=O)(=O)c2ccccc21
EC50 [36]: > 362 µM

EC50 [6]: > 150 µM
EC50 [7]: 6.5 µM
Structure (SMILES): N#Cc1cccc(CN2C(=O)N(Cc3ccccc3)S(=O)(=O)n3cccc32)c1

EC50 [35]: 16 µM
Structure (SMILES): Cn1ccc2c1C(=O)Nc1ccccc1S2
EC50 [36]: > 434 µM

EC50 [35]: 0.86 µM
Structure (SMILES): O=C(C[C@H]1C(=O)Nc2ccccc2C2CCCN21)OCc1ccccc1 (some centres undefined)
EC50 [36]: 28.5 µM

EC50 [16]: 0.0216 µM
Structure (SMILES): C[C@@H]1CN(C(=O)c2ccccc2)CCN1C(=O)C(=O)c1c[nH]c2cnccc12
